Values of other authors as cited in article PMC7451048 (Drug metabolism letters, 2019).

Key:
P-gp = P-gp (Homo sapiens, UniProt P08183); settings: read-out: Km for P-gp; membrane vesicles isolated from human placenta; ref [61]; cited from earlier work
BCRP = biological target: T1, BCRP (Homo sapiens, UniProt Q9UNQ0); settings: read-out: Km for BCRP; membrane vesicles isolated from human placenta; ref [61]; cited from earlier work
T1 sequence (Q9UNQ0 1-655): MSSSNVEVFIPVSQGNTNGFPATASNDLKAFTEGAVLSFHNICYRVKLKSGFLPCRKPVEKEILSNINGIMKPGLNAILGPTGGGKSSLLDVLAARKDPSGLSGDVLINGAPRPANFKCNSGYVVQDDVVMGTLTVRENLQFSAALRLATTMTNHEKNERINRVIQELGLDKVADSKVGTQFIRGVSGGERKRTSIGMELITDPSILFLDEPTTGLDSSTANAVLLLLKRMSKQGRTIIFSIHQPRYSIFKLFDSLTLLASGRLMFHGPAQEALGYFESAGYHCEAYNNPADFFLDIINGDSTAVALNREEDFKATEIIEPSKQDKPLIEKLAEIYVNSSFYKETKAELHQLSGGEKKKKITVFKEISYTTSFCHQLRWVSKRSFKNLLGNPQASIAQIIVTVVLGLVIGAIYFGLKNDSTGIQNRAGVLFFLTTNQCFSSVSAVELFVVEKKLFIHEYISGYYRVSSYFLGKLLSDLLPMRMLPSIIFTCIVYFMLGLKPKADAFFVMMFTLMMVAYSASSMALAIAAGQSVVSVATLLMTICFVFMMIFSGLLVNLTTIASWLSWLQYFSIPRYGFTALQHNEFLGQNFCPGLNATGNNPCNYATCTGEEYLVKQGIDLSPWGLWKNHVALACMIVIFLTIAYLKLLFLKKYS

[1] = co-administration of clopidogrel and ticlopidine; ref [25]; cited from earlier work

Sequence of P-gp (P08183 whole entry): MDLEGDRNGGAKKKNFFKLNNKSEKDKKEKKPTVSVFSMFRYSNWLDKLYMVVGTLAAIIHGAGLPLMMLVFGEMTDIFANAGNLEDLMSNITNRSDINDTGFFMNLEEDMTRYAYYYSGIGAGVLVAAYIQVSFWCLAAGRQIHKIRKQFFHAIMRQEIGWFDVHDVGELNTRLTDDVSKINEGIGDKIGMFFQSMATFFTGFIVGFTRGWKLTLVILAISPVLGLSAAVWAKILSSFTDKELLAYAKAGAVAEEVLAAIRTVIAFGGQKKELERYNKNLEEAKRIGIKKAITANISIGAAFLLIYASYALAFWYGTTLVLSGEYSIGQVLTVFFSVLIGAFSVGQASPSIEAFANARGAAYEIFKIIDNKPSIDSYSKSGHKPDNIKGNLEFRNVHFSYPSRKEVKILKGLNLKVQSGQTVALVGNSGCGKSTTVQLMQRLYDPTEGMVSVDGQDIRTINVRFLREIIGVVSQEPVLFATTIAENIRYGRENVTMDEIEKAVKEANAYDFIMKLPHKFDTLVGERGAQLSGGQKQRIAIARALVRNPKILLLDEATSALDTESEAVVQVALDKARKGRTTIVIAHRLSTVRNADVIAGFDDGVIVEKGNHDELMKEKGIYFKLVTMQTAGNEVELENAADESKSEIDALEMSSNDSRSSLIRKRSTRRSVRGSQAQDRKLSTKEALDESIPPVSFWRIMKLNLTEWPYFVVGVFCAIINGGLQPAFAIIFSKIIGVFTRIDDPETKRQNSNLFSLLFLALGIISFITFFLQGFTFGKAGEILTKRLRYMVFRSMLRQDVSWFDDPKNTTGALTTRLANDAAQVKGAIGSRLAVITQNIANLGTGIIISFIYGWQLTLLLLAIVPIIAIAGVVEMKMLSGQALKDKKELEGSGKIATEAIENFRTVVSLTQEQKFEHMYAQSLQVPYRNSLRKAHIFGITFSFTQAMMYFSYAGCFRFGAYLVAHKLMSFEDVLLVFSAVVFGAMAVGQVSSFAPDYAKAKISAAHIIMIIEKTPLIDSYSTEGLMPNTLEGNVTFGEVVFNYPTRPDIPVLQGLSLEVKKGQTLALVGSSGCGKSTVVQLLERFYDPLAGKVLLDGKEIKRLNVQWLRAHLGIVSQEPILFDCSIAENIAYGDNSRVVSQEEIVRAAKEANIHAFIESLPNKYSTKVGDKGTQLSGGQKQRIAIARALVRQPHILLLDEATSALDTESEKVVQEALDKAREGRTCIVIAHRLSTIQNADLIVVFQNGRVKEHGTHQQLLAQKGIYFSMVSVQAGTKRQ

Q: Which Km (P-gp) does the source give for `CC(NC(C)(C)C)C(=O)c1cccc(Cl)c1` (stereo not shown) [BUP, Bupropion] here?
A: 0.5 µM

Q: What about the Km (BCRP) of the same compound?
A: 3 µM

Q: What about the Difference in half-life [1] of the same compound?
A: no significant difference

Q: And the “Increase in systemic exposure (AUC)” value [1]?
A: 36–61%
